{"source": "patent US8853125B2", "about": "“Pyrazole compounds for controlling invertebrate pests” (BASF SE, priority 2008, dated 2014)", "type_in_all_cases": "in vivo", "key": {"[1]": {"tested_on": "Cotton Aphid (aphis gossypii, Mixed Life Stages)", "assay": "Cotton aphid, method a (cotyledon dip)", "conditions": "120 h, read-out: mortality in comparison with untreated controls", "text": "(§1) The active compounds were formulated in 50:50 (vol:vol) acetone:water and 100 ppm Kinetica™ surfactant.\nCotton plants at the cotyledon stage (one plant per pot) were infested by placing a heavily infested leaf from the main colony on top of each cotyledon. The aphids were allowed to transfer to the host plant overnight, and the leaf used to transfer the aphids was removed. The cotyledons were dipped in the test solution and allowed to dry. After 5 days, mortality counts were made."}, "[2]": {"tested_on": "Vetch Aphid (Megoura viciae)", "assay": "Vetch aphid, bean leaf disks in microtiterplates", "conditions": "foliar, 144 h", "protocol": "The active compounds were formulated in 1:3 (vol:vol) DMSO:water with different concentrations of formulated compounds.\nBean leaf disks were placed into microtiterplates filled with 0.8% agar-agar and 2.5 ppm OPUS™. The leaf disks were sprayed with 2.5 μl of the test solution and 5 to 8 adult aphids were placed into the microtiterplates which were then closed and kept at 23±1° C. and 50±5% relative humidity under fluorescent light for 6 days. Mortality was assessed on the basis of vital, reproduced aphids. Aphid mortality and fecundity was then visually assessed."}, "[3]": {"tested_on": "Green Peach Aphid (Myzus persicae, Mixed Life Stages)", "assay": "Green peach aphid, method a (leaf dip, pepper plants)", "conditions": "foliar, 120 h, read-out: mortality in comparison with untreated controls", "text": "as §1\nPepper plants in the 2nd leaf-pair stage (variety ‘California Wonder’) were infested with approximately 40 laboratory-reared aphids by placing infested leaf sections on top of the test plants. The leaf sections were removed after 24 hr. The leaves of the intact plants were dipped into gradient solutions of the test compound and allowed to dry. Test plants were maintained under fluorescent light (24 hour photoperiod) at about 25° C. and 20-40% relative humidity. Aphid mortality on the treated plants, relative to mortality on check plants, was determined after 5 days."}, "[4]": {"tested_on": "Cowpea Aphid (aphis craccivora)", "assay": "Cowpea aphid, sprayed potted cowpea plants", "conditions": "read-out: mortality in comparison with untreated controls", "protocol": "The active compounds were formulated in 50:50 (vol:vol) acetone:water. The test solution was prepared at the day of use.\nPotted cowpea plants colonized with 100-150 aphids of various stages were sprayed after the pest population had been recorded. Population reduction was assessed after 24, 72, and 120 hours."}}, "data": [{"molecule": "CN1CCn2ncc(C(=O)Nc3cccnc3)c2C1", "note": "[Compound 13, N-(pyridine-3-yl)-5-methyl-4,5,6,7-tetrahydropyrazolo-[1,5-a]pyrazine-3-carboxamide]", "values": [{"measurement": "mortality at 300 ppm", "setting": "[1]", "value": "≥ 75", "unit": "%"}, {"measurement": "mortality at 2500 µg/mL", "setting": "[2]", "value": "≥ 90", "unit": "%"}, {"measurement": "mortality at 300 ppm", "setting": "[3]", "value": "≥ 75", "unit": "%"}, {"measurement": "mortality at 300 ppm", "setting": "[4]", "value": "≥ 75", "unit": "%"}]}]}
